From the supplement of paper PMC10307832

These cell lines were tested with CC1(COc2ccc3c(c2)ncn3-c2ccc3cccc(N4CCC(N)CC4)c3n2)COC1 [Crenolanib] + C[C@]1(O)C[C@@H](c2nc(-c3ccc4ccc(-c5ccccc5)nc4c3)c3c(N)nccn32)C1 [Linsitinib] (partner 1 µM) (assay: relative viability (nuclei count vs DMSO), 5 days (fraction); higher = more cells survive). Settings: first compound 1 µM.
Procedure, shortened: (§1)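 Relative viability equals treated-well nuclei counts divided by vehicle-well nuclei counts. Counts came from 4× images of lung cancer cell lines grown in 1536-well plates for 5 days after pin-tool dosing on the day after seeding. Dosing used one drug alone or a fixed anchor-drug dose plus five library-drug doses (not always all listed) in √10 steps, and values are medians of duplicate plates.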

| Cell Line | relative viability |
| --- | --- |
| A549 | 0.533 |
| NCI-H441 | 0.509 |
| NCI-H1395 | 1.21 |
| NCI-H1299 | 0.958 |
| NCI-H1793 | 0.873 |
| LCLC-103H | 0.988 |

These cell lines were tested with CC1(COc2ccc3c(c2)ncn3-c2ccc3cccc(N4CCC(N)CC4)c3n2)COC1 [Crenolanib] + CS(=O)(=O)CCNCc1ccc(-c2ccc3ncnc(Nc4ccc(OCc5cccc(F)c5)c(Cl)c4)c3c2)o1 [Lapatinib] (partner 2 µM) in the same assay as above. Settings: first compound 0.01 µM.
Procedure, shortened: as §1

| Cell Line | relative viability |
| --- | --- |
| NCI-H838 | 1.07 |
| NCI-H1651 | 0.83 |
| EBC-1 | 0.212 |
| NCI-H1734 | 1 |
| NCI-H2009 | 1.07 |
| PC-14 | 0.311 |
| LCLC-97TM1 | 0.895 |
| NCI-H596 | 0.947 |
| NCI-H2228 | 0.964 |
| EMC-BAC-2 | 0.912 |
| NCI-H2087 | 1.14 |
| Calu-6 | 0.996 |
| HCC-44 | 1.02 |
| NCI-H1703 | 1.14 |
| NCI-H647 | 1.04 |
| LK-2 | 0.942 |

| Cell Line | relative viability |
| --- | --- |
| NCI-H2126 | 0.796 |
| SK-MES-1 | 0.449 |
| HARA | 0.711 |
| COR-L23 | 0.952 |
| COR-L 105 | 0.353 |
| LC-2-ad | 1 |
| LU99A | 1.08 |
| NCI-H2170 | 0.272 |
| NCI-H3122 | 1.02 |
| IA-LM | 0.741 |
| HCC-78 | 0.138 |
| A549 | 1.12 |
| NCI-H1395 | 1.02 |
| NCI-H1299 | 0.928 |
| NCI-H1793 | 0.767 |
| NCI-H1650 | 0.799 |

Same assay, conditions: first compound 0.03162 µM

| Cell Line | relative viability |
| --- | --- |
| NCI-H838 | 0.966 |
| NCI-H1651 | 0.979 |
| EBC-1 | 0.213 |
| NCI-H1734 | 1.08 |
| NCI-H2009 | 0.889 |
| EPLC-272H | 0.877 |
| PC-14 | 0.294 |
| LCLC-97TM1 | 0.861 |
| NCI-H596 | 1.09 |
| NCI-H2228 | 0.876 |
| EMC-BAC-2 | 0.862 |
| NCI-H2087 | 1 |
| Calu-6 | 1.02 |
| HCC-44 | 0.997 |
| NCI-H1703 | 0.713 |
| NCI-H647 | 0.996 |
| LK-2 | 0.812 |

| Cell Line | relative viability |
| --- | --- |
| NCI-H2126 | 0.742 |
| SK-MES-1 | 0.504 |
| HARA | 0.81 |
| COR-L23 | 1.13 |
| COR-L 105 | 0.403 |
| LC-2-ad | 0.922 |
| LU99A | 0.988 |
| NCI-H2170 | 0.283 |
| NCI-H3122 | 0.976 |
| IA-LM | 0.951 |
| HCC-78 | 0.637 |
| A549 | 1.1 |
| NCI-H1395 | 1.06 |
| NCI-H1299 | 1.01 |
| NCI-H1793 | 0.799 |
| NCI-H1650 | 0.918 |

Same assay, conditions: first compound 0.1 µM

| Cell Line | relative viability |
| --- | --- |
| NCI-H838 | 0.993 |
| NCI-H1651 | 0.9 |
| EBC-1 | 0.22 |
| NCI-H1734 | 0.995 |
| NCI-H2009 | 0.899 |
| EPLC-272H | 0.722 |
| PC-14 | 0.335 |
| LCLC-97TM1 | 0.748 |
